Where a name gives a salt, the structure may show the parent alone.

In series [1] the target is Neuronal Nicotinic Receptors. Kind of series: Binding of [^3 H]-methylcarbamylcholine ([^3 H]-MCC) to neuronal nicotinic receptors (Table 1). The arrangement: species or system rat. On the procedure: Protocols for Determination of Nicotinic Receptor Binding Potencies of Agonists
Binding of [^3 H]-methylcarbamylcholine ([^3 H]-MCC) to nicotinic receptor was accomplished using crude synaptic membrane preparations from whole rat brain (Snyder and Enna, Brain Research, 1975, 100:81). Washed membranes were stored at -80° C. prior to use. Frozen aliquots were slowly thawed and resuspended in 20 volumes of buffer (containing: 120 mM NaCl, 5 mM KCl, 2 mM MgCl2, 2 mM CaCl2 and 50 mM Tris-Cl, pH 7.4 @4° C.). After centrifuging at 20,000 g for 15 minutes, the pellets were resuspended in 30 volumes of buffer. Homogenate (containing 125-150 μg protein) was added to triplicate tubes containing concentrations of test compound and [^3 H]-MCC (3 nM) in a final volume of 500 μL. Samples were incubated for 60 minutes at 4° C., then rapidly filtered through Whatman GF/B filters presoaked in 0.5% polyethylimine using 3×4 mL of ice-cold buffer. The filters are counted in 4 mL of Ecolume® (ICN). […] Alternately, data were expressed as a percentage of the total specific binding.

Series [2] deals with cholinergic receptors located in the heart. Conditions: cited from earlier work.
Another series deals with cortical receptors. Conditions: cited from earlier work.
The conditions of series [3]: background statement; cited from earlier work.
For series [4], the system named is anxiolytic activity (time in open arms). Description: Mouse Elevated Plus-Maze Studies. Format: in vivo, CD1 mice. On the procedure:
FIG. 4 is a graphical representation of the effects of the compound of Example 4 (0.003-0.3 mg/kg) on the performance of CD1 mice in the Elevated-Plus Maze Study expressed as median time (seconds) spent on the open arms of the maze.
The mouse elevated plus-maze is a conflict test that probes anxiolytic activity of test compounds (Lister, Psychopharmacology, 1987, 92:180). It is based on the fact that exposure of mice to an elevated open arm leads to an avoidance response considerably stronger than that evoked by exposure to an enclosed arm.
The apparatus required to perform this test is made of plywood and consists of two open arms (17×8 cm) and two enclosed arms (17×8×15 cm) extending from a central platform (8×8 cm). It is mounted on a plywood base rising 39 cm above the floor. Mice are released on the central platform and the time spent in the open and enclosed arms is recorded during a 5 minute test period.
The compound of Example 4 (0.62-6.2 μmol/kg, IP) was administered to CD1 mice 15 minutes before the test.

In a further series the test system is insecticidal activity. The note with it: U.S. Pat. No. 4,093,620; cited from earlier work.
Series [5] relates to retention of the avoidance response. Description: Inhibitory Avoidance Studies. It is filed as in vivo, CD1 mice. The note with it: 0.06-6.2 μmol/kg IP, 15 min before training; FIG. 2. On the procedure: FIG. 2 is a graphical representation (bar graph) of the effects of the compound of Example 8 (0.001-1.0 mg/kg) on the performance of CD1 mice in Inhibitory Avoidance Studies expressed as median step-through latency time (seconds).
The inhibitory (or sometimes called passive) avoidance (IA) test is a well accepted animal model of learning/memory used to assess the activity of novel muscarinic agonists to enhance cognitive function (Wanibuchi et al., Eur. J. Pharmacol., 1990, 187:479). Animals are placed in the illuminated (12×14×11 cm) portion of a two-chambered box, from which they enter through a guillotine door to the larger (24×13.5×12 cm) dark compartment of the box. Entry to the dark compartment is accompanied by a mild (0.5 mA), brief (2 seconds) footshock. Initial latencies to cross are recorded, with an imposed 60 second ceiling. Following a 72 hour retention interval, animals are returned to the illuminated chamber, and latency to return to the dark compartment is again recorded, with a ceiling of 180 seconds. No footshock is administered on the test day.
Twelve animals were used in each group.

Another series relates to receptors. Conditions: chronic nicotine administration; cited from earlier work.
A further series has as its system withdrawal symptoms. Conditions: double-blind studies; cited from earlier work.
In another series the test system is cognitive function. Conditions: acutely and chronically administered; preserved in aged animals; cited from earlier work.
The test system of another series is heart. The note with it: in vivo; cited from earlier work.
Series [6] has as its system anger, irritability, frustration, tension, anxiety. The note with it: cited from earlier work.
A further series relates to parietotemporal cortex. Conditions: parietotemporal cortex of humans; cited from earlier work.
Where [7] appears, read: [^3 H]-MCC (3 nM), whole rat brain membranes, 60 min at 4° C., Cheng-Prusoff from IC50.

Molecule `CN1C[C@@H](Cc2ccccc2)CC1c1cccnc1` (stereo partly drawn) [Example 5, 4'-(S)-Benzylnicotine dioxalate] had an inhibition constant Ki in [1] (setting [7]) of 135 nM.
`CCN1C(=O)CC2(CCN(C)CC2)C1=O` [RS-86]: the “agonist efficacy at cardiac receptors” value in series [2] is “full agonist at cardiac receptors”. Also, the “agonist efficacy at cortical receptors” value in the series with cortical receptors is reported as “only a partial agonist at cortical receptors”. Besides, the potency and selectivity entry in series [3] is “poor potency and lack of selectivity”.
The molecule `C[C@@H]1CC(c2cccnc2)N(C)C1.O=C(O)C(=O)O.O=C(O)C(=O)O` (stereo partly drawn) [Example 4, 4'-(R)-Methylnicotine dioxalate] yielded a Ki in [1] (setting [7]) of 4.2 nM. Further, the “anxiolytic response (time in open arms)” value in series [4] (0.62-6.2 μmol/kg IP, 15 min before test, p<0.05 vs control, FIG. 4) was “clear anxiolytic response”. In series [4] (FIG. 4), the “anxiolytic effect compared with (-)nicotine” value is on record as “anxiolytic effect similar to (-)nicotine”.
In turn, `CC(=O)O[C@@H]1CC(c2cccnc2)N(C)C1` (stereo partly drawn) [Example 12, 4'-(R)-Acetyloxynicotine oxalate] came in with a Ki in [1] (setting [7]) of 162 nM.
Still for that read-out and setting: with `CN1C[C@@H](CC#N)CC1c1cccnc1` (stereo partly drawn) [Example 16, 4'-(R)-Cyanomethylnicotine oxalate] the figure was 53 nM.
For the molecule `CN1C(C#N)CCC1c1cccnc1` (stereo not drawn) [5'-cyanonicotine], in the series with insecticidal activity, the insecticidal activity entry was “insecticidal activity”.
For `CN1C[C@H](OS(C)(=O)=O)CC1c1cccnc1` (stereo partly drawn) [Example 19, 4'-(R)-Methanesulfonyoxynicotine oxalate], the affinity in series [1] (setting [7]) corresponds to a Ki of 276 nM. In other words, the sub-micromolar range.
For `CN1C[C@H](O)CC1c1cccnc1` (stereo partly drawn) [Example 1, 4'-(R)-Hydroxynicotine oxalate], the affinity in series [1] (setting [7]), expressed as Ki, was 29 nM. Compared with the last molecule, the Ki is about 9.5-fold lower.
The same measure, in the same setting: with `CN1C[C@@H](F)CC1c1cccnc1` (stereo partly drawn) [Example 3, 4'-(S)-Fluoronicotine dioxalate] the figure was 35 nM.
With `CN1C[C@H](CF)CC1c1cccnc1.O=C(O)C(=O)O` (stereo partly drawn) [Example 8, 4'-(R)-Fluoromethylnicotine oxalate], the affinity in series [1] (setting [7]) corresponds to a Ki of 10 nM. For the same molecule, the “facilitation of retention of the avoidance response” value in series [5] is reported as “significantly facilitated the retention of the avoidance response”.
`CN1CCC(CF)C1c1cccnc1` (stereo not drawn) [Example 9, 3'-Fluoromethylnicotine oxalate]: the Ki in series [1] (setting [7]) amounted to 106 nM.
Regarding `CC1CCN(C)C1c1cccnc1` (stereo not drawn) [Example 10, 3'-methylnicotine dioxalate], in series [1] (setting [7]), the Ki is 23 nM. Against the preceding molecule, the Ki is about 4.6-fold lower.
Still for that read-out and setting: next, `CC[C@H]1CC(c2cccnc2)N(C)C1` (stereo partly drawn) [Example 6, 4'-(S)-Ethylnicotine dioxalate]: 53 nM; `CN1C[C@@H](C#N)CC1c1cccnc1` (stereo partly drawn) [Example 11, 4'-(S)-Cyanonicotine dioxalate]: 7 nM.
Take `C[N+](C)(C)CCOC(N)=O` [carbachol]: the CNS penetration entry in series [3] was “poor CNS penetration”.
`CN1CCC[C@H]1c1cccnc1` [nicotine] returned a Ki in [1] (setting [7]) of 1 nM. The “time spent in open arms of the maze” value in series [4] ((-)nicotine 0.1 and 0.3 mmol/kg, p<0.05 vs saline, 5 min test) is “significant increase in the time spent by the mice in the open arms of the maze”. In addition, in the series with receptors, the “effect on receptor affinity” value is “without affecting affinity” and the “up-regulation of number of receptors” value was 50-100%. In addition, in series [3], the oral bioavailability entry was “poor oral bioavailability” and the pharmacokinetics result was “unfavorable pharmacokinetics”. The “suppression/prevention of withdrawal signs and symptoms vs placebo” value in the series on withdrawal symptoms was “far superior to placebo in suppressing or preventing the appearance of many of the signs and symptoms of withdrawal”. Besides, in the series with cognitive function, the cognitive function entry is recorded as “enhances cognitive function in rats”. Besides, the “stimulant effects on the heart” value in the series on heart was “increasing cardiac workload and oxygen demand”. The anxiolytic properties result in series [6] (Pomerleau et al. 1984) is recorded as “anxiolytic properties”. The “effect on anger, irritability, frustration, tension” value in [6] (U.S. Pat. No. 3,879,794, without general response depression, drowsiness or sedation) is “effective in reducing anger, irritability, frustration and feelings of tension”.
In the case of `CC1CN(C)C(c2cccnc2)C1C` (stereo not drawn) [Example 13, 3',4'-Dimethylnicotine oxalate], the affinity in [1] (setting [7]) corresponds to a Ki of 105 nM.
On to `CNC1(C)C2CCC(C2)C1(C)C` (stereo not drawn) [mecamylamine], for which the resting cortical perfusion entry in the series on parietotemporal cortex was “reduces resting cortical perfusion”.
`COC(=O)C1=CCCN(C)C1` [arecoline]: the Ki in series [1] (arecoline comparator in text, unit inferred) turned out to be 59 nM. Further, in series [3], the pharmacokinetics result is listed as “unfavorable pharmacokinetics”.
The molecule `CO[C@@H]1CC(c2cccnc2)N(C)C1` (stereo partly drawn) [Example 2, 4'-(R)-Methoxynicotine oxalate] came in with a Ki in series [1] (setting [7]) of 25 nM.

The record behind these values is patent US5278176A (Abbott Laboratories, priority 1992, dated 1994).
